Reference: US20210393614A1, “QUINONE REDUCTASE 2 INHIBITORS FOR USE AS NEUROPROTECTIVE AGENTS” (DUKE UNIVERSITY, priority 2018, published 2021)

How the values were obtained:
[1] = target: T1, QR2 (Homo sapiens, UniProt P16083); test: Inhibition of QR2 (IC50, Table 1); type: biochemical; conditions: for IC50: inhibitors of QR2, mean +/− SD; for LiPE (pIC50-clogP): lipophilic efficiency, QR2 pIC50 minus clog P
T1 sequence (P16083 1-231): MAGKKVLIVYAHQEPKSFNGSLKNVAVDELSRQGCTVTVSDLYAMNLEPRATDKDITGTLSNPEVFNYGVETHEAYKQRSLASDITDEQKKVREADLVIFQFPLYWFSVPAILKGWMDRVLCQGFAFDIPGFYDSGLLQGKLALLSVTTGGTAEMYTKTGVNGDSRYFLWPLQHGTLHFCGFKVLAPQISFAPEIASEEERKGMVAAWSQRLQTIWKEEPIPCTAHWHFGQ

[2] = test system: transient middle cerebral artery (MCA) occlusion; test: Mouse model of transient middle cerebral artery (MCA) occlusion; type: in vivo
[3] = test system: CPB/DHCA perioperative cerebral injury; test: Rat model of cardiopulmonary bypass (CPB)/deep hypothermic circulatory arrest (DHCA); type: in vivo, Sprague-Dawley rats; conditions: for apoptotic and necrotic neurons in cortex and hippocampus: 25 mg/kg, 48 hours after DHCA, FIG. 6, FIG. 7; for decrease in post-operative blood brain barrier permeability (gadolinium chelate, MRI): compared to respective control groups, p<0.05, preliminary results
Experimental: Perioperative cerebral injury (PCI) following major cardiovascular surgery using cardiopulmonary bypass (CPB) and deep hypothermic circulatory arrest (DHCA) remains a significant cause of adverse cerebral outcome. […] Cannulas were placed in the tail artery and the right external jugular vein. Animals were then cooled on CPB for 30 minutes, and DHCA was instituted at a pericranial temperature of 16-18° C. […] MRI was performed on day-1 post-operatively, neurological assessments on day 1 and 2 post-operatively, and animals then sacrificed after day 2.

[4] = test system: vascular dementia (BCAS mice); test: Murine model of vascular dementia (BCAS); type: in vivo; conditions: for Morris water maze escape latency: versus vehicle, n=10
Experimental: Vascular dementia is caused by chronic cerebral hypoperfusion and is characterized clinically by white matter lesions on MRI and a decline in executive function. […] Physiological, cellular, and functional outcomes were determined using a combination of quantitative immunochemistry, MRI, and behavioral tasks including Morris water maze and rotorod.

[5] = test system: permanent MCA occlusion model; conditions: cited from earlier work
[6] = during therapeutic dosing; cited from earlier work
[7] = in vivo
[8] = test system: TBI model of diffuse closed head injury; test: Murine TBI model of diffuse closed head injury; type: in vivo; conditions: single 25 mg/kg administration, n=12/gp
Text: The neuroprotective potential of QR2 inhibition was investigated in a murine TBI model of diffuse closed head injury (Laskowitz et al., “Neuroprotective pentapeptide CN-105 is associated with reduced sterile inflammation and improved functional outcomes in a traumatic brain injury murine model.” Sci. Rep. 2017 Apr. 21; 7:46461).

[9] = test system: intracranial hemorrhagic injury; test: Mouse model of intracranial hemorrhagic injury; type: in vivo; conditions: single 25 mg/kg i.p. dose

Row | SMILES | IC50 [1] | LiPE (pIC50-clogP) [1] | apoptotic and necrotic neurons in cortex and hippocampus [3] | decrease in post-operative blood brain barrier permeability (gadolinium chelate, MRI) [3] | Morris water maze escape latency [4] | other results
1 | Oc1ccc(CCNc2ccnc3cc(Cl)ccc23)cc1 [Example Compound A, 4-{2-[(7-chloroquinolin-4-yl)amino]ethyl}phenol] | 2.7 µM | 1.65 | – | – | – | –
2 | COc1cc(NCc2ccccn2)c2ncccc2c1 [Example Compound B, 6-methoxy-N-(pyridin-2-ylmethyl)quinolin-8-amine] | – | 4.30 | – | – | – | –
3 | Clc1ccc2c(Nc3ccccn3)ccnc2c1 [Example Compound D, 7-chloro-N-(pyridin-2-yl)quinolin-4-amine] | 0.55 µM | 2.71 | – | – | – | –
4 | CCN(CC)CCCC(C)Nc1ccnc2cc(Cl)ccc12 (stereo not shown) [chloroquine] | – | – | fewer apoptotic and necrotic neurons | 3% | performance profile similar to their N-MCQ counterparts | stroke evolution between 4 and 24 hours by DW-MRI ([2]; single i.p. 25 mg/kg 90 minutes after ischemia onset): reduction in stroke evolution; reduction in overall stroke volume ([2]; single i.p. 25 mg/kg 90 minutes after ischemia onset, post-mortem histology at 72 hours): 55%; reduction of stroke volumes [5]: 60%; plasma concentration [6]: < 1000 nM
5 | COc1cc(NC(C)c2ccco2)c2ncccc2c1 (stereo not shown) [Example Compound C, N-[1-(furan-2-yl)ethyl]-6-methoxyquinolin-8-amine] | 0.85 µM | 3.42 | – | – | – | –
6 | CNc1ccnc2cc(Cl)ccc12 [7C-4MAQ, 7-chloro-N-methylquinolin-4-amine] | – | 4.67 | fewer apoptotic and necrotic neurons | 3% | decreased escape latencies compared to vehicle controls | reductions in cortical stroke volumes relative to those after CQ ([2]; equivalent single acute phase dose 25 mg/kg, FIG. 3C): ~2 ×; LD50 relative to the 25 mg/kg dose [7]: more than 20 times; improvement in Morris water maze performance ([8]; 1 month following injury): 62%; improvement over vehicle in rotorod latency [8]: 20%; improvement in motor function (rotorod assessment) [9]: 21%; neurological scores at post-op day 1 and 2 ([3]; 25 mg/kg 2 hours before CPB/DHCA, FIG. 8): significantly improved neurological scores; Morris water maze probe trial, time in target quadrant ([4]; p<0.05 group effect): significantly more time in the target quadrant
